“And” between values parts separate entries of the source, which are not always exact repeats. Equal values may be shown once. Read-outs that look alike come from different tables or passages of the source. Marks after values point to notes of the source that are not given here.
Tests used:
[1] = tested on: H22 tumor-bearing mice; conditions: intragastric once daily
Description: To determine the pharmacodynamic characters of 13a-(S)-deoxytylophorinine and its salts, the impact of these compounds to the tumor growth in H22 tumor-bearing mice was surveyed.
Male Kunming mice were obtained from the Laboratory Animal Center, Academy of Military Medical Science. Body weight 18˜22 g. 6 animals per group, totally 10 groups, 60 animals.
(+)-13a-(S)-deoxytylophorinine, (+)-13a-(S)-deoxytylophorinine Tartrate, (+)-13a-(S)-deoxytylophorinine Maleate, (+)-13a-(S)-deoxytylophorinine Citrate, Cytoxane (CTX) as positive control.
(+)-13a-(S)-deoxytylophorinine was administered at high dose (5 mg/kg) and low dose (2.5 mg/kg). Three (+)-13a-(S)-deoxytylophorinine salts were administered at high dose and low dose as equal moles with their prototype (Tartrate: 7.05 mg/kg, 3.53 mg/kg; Malate: 6.60 mg/kg, 3.30 mg/kg; Citrate: 7.90 mg/kg, 3.95 mg/kg).
Animals were reared in SPF grade circumstance to be observed for 24 h. The tumor cells liquid which resuscitated in abdominal cavity of KM mice was diluted with aseptic normal saline at 1:3 ratio. The resulting liquid was inoculated subcutaneously at forelimb with 0.2 mL every animal. After the injection over, the animals were divided to […] with 6 animals per group.
Four experimental samples were intragastric administered once daily 24 h after inoculation. The positive control CTX was intraperitoneal injected once daily. The animal body weight was recorded every day.

[2] = Solubility in water; format: physicochemical
[3] = Plasma pharmacokinetics after oral administration in mice
Procedure: To determine the pharmacokinetic characters of 13a-(S)-deoxytylophorinine and its salts, the studies about plasma pharmacokinetics and the character of distribution in brain were pursued.
(§1) Male ICR mice. Body weight 18˜22 g.
(+)-13a-(S)-deoxytylophorinine Tartrate, (+)-13a-(S)-deoxytylophorinine Maleate, (+)-13a-(S)-deoxytylophorinine Citrate. All were dissolved in distilled water as 0.6 mg/ml solution before experiment progressed.
72 mice were divided to 3 groups with 24 animals per group, fasting for 16 h and drinking water freely. […] Plasma was isolated by centrifugalization. After the salts were administered orally, the brain tissues of mice were collected at 5 min, 15 min, 2 h time points. 25% tissue homogenate was prepared with normal saline addition. 200 μL of homogenate and plasma were added isovolumic MeCN to precipitate protein. 5 μL of clear supernatant was analyzed by LC/MS/MS.
(+)-13a-(S)-deoxytylophorinine was dissolved in DMSO and then diluted with MeOH with concentration 10, 50, 100, 500, 1000 and 2500 ng/ml respectively. 10 μl of standard solutions of (+)-13a-(S)-deoxytylophorinine with different concentration above were added to 200 μl of blank plasma sequently to adjust the concentration to 0.5, 2.5, 5, 25, 50, 125 ng/ml respectively. MeCN was added to the solution to precipitate protein, and 5 μl of result clear supernatant was analyzed with LC/MS/MS. Linear regression was ran with the peak area of (+)-13a-(S)-deoxytylophorinine as ordinate and the concentrations as abscissa.

[4] = Drug distribution in brain tissue after oral administration in mice; format: in vivo, ICR mice; conditions: for Brain contents of (+)-13a-(S)-deoxytylophorinine (ng/ml), Mean ± SD / Brain contents of (+)-13a-(S)-deoxytylophorinine (ng/ml), individual animals 1-3: 6 mg/kg oral
Procedure: as §1
Plasma was isolated by centrifugalization. […] 25% tissue homogenate was prepared with normal saline addition.
The drug concentration-time data in brain tissue after administered orally of (+)-13a-(S)-deoxytylophorinine tartrate, maleate and citrate were represented in Table 8˜10 and FIG. 6˜8. […] (+)-13a-(S)-deoxytylophorinine could be detected in 5 min. The peak concentration was reached after 15 min, and the compound still can be detected after 2 h after administration.

[5] = high dose × 7 d, equal moles: prototype 5.0, tartrate 7.05, maleate 6.60, citrate 7.90 mg/kg
[6] = low dose × 7 d, equal moles: prototype 2.5, tartrate 3.53, maleate 3.30, citrate 3.95 mg/kg
[7] = 6 mg/kg oral, mice, Time (min) 0.08
[8] = 6 mg/kg oral, mice, Time (min) 0.25
[9] = 6 mg/kg oral, mice, Time (min) 0.5
[10] = 6 mg/kg oral, mice, Time (min) 1
[11] = 6 mg/kg oral, mice, Time (min) 2
[12] = 6 mg/kg oral, mice, Time (min) 3
[13] = 6 mg/kg oral, mice, Time (min) 4
[14] = 6 mg/kg oral, mice, Time (min) 6
[15] = male, ICR, mouse, plasma, po, 6 mg/kg

## COc1ccc2c3c(c4cc(OC)c(OC)cc4c2c1)CN1CCC[C@H]1C3.O=C(O)/C=C\C(=O)O [Maleate, (+)-13a-(S)-deoxytylophorinine Maleate]
[1]; [5]
  Animal No. (Initial/Final): 6/4
  Body Weight(g) Final: 13.62 ± 2.08 g
  Body Weight(g) Initial: 21.17 ± 0.98 g⁻¹
  Inhibition (%): 73.58** %
  Tumor Weight (g, mean ± SD): 0.30 ± 0.24 g
[1]; [6]
  Animal No. (Initial/Final): 6/6
  Body Weight(g) Final: 23.79 ± 0.52 g
  Body Weight(g) Initial: 22.50 ± 1.05 g⁻¹
  Inhibition (%): 45.56%
  Tumor Weight (g, mean ± SD): 0.62 ± 0.31 g
[2]
  Solubility in water (words): soluble in water
[2]; water
  solubility: 44 mg/mL
[3]; 6 mg/kg oral, mice
  Peak concentration in blood: 35.4 ± 3.5 ng/mL
  Time of peak concentration in blood: 5 min
[3]; 6 mg/kg oral, mice, plasma, non-compartment model
  t½z: 1.72 h
[3]; [7]
  Blood concentration of (+)-13a-(S)-deoxytylophorinine (ng/ml), Mean ± SD: 35.4 ± 3.5 ng/mL
  Blood concentration of (+)-13a-(S)-deoxytylophorinine (ng/ml), individual animals 1-3: 33.0 ng/mL and 37.9 ng/mL
[3]; [8]
  Blood concentration of (+)-13a-(S)-deoxytylophorinine (ng/ml), Mean ± SD: 27.4 ± 6.2 ng/mL
  Blood concentration of (+)-13a-(S)-deoxytylophorinine (ng/ml), individual animals 1-3: 24.2 ng/mL and 23.5 ng/mL and 34.6 ng/mL
[3]; [9]
  Blood concentration of (+)-13a-(S)-deoxytylophorinine (ng/ml), Mean ± SD: 12.2 ± 4.0 ng/mL
  Blood concentration of (+)-13a-(S)-deoxytylophorinine (ng/ml), individual animals 1-3: 15.7 ng/mL and 13.0 ng/mL and 7.9 ng/mL
[3]; [10]
  Blood concentration of (+)-13a-(S)-deoxytylophorinine (ng/ml), Mean ± SD: 9.2 ± 3.2 ng/mL
  Blood concentration of (+)-13a-(S)-deoxytylophorinine (ng/ml), individual animals 1-3: 12.5 ng/mL and 6.2 ng/mL and 8.7 ng/mL
[3]; [11]
  Blood concentration of (+)-13a-(S)-deoxytylophorinine (ng/ml), Mean ± SD: 11.2 ± 8.0 ng/mL
  Blood concentration of (+)-13a-(S)-deoxytylophorinine (ng/ml), individual animals 1-3: 2.0 ng/mL and 15.9 ng/mL and 15.7 ng/mL
[3]; [12]
  Blood concentration of (+)-13a-(S)-deoxytylophorinine (ng/ml), Mean ± SD: 8.6 ± 6.6 ng/mL
  Blood concentration of (+)-13a-(S)-deoxytylophorinine (ng/ml), individual animals 1-3: 3.6 ng/mL and 16.1 ng/mL and 6.3 ng/mL
[3]; [13]
  Blood concentration of (+)-13a-(S)-deoxytylophorinine (ng/ml), Mean ± SD: 2.8 ± 0.9 ng/mL
  Blood concentration of (+)-13a-(S)-deoxytylophorinine (ng/ml), individual animals 1-3: 2.6 ng/mL and 2.0 ng/mL and 3.8 ng/mL
[3]; [14]
  Blood concentration of (+)-13a-(S)-deoxytylophorinine (ng/ml), Mean ± SD: 1.2 ± 1.0 ng/mL
  Blood concentration of (+)-13a-(S)-deoxytylophorinine (ng/ml), individual animals 1-3: 2.3 ng/mL and 1.0 ng/mL and 0.4 ng/mL
[3]; [15]
  AUC(0-inf): 49.9 ng·h/mL
  AUC(0-t): 46.9 ng·h/mL
  Cmax: 35.5 ng/mL
  MRT inf: 2.18 h
  MRT last: 1.78 h
  Tmax: 4.8 min
[4]; Time (min) 5
  Brain contents of (+)-13a-(S)-deoxytylophorinine (ng/ml), Mean ± SD: 150.2 ± 84.8 ng/mL
  Brain contents of (+)-13a-(S)-deoxytylophorinine (ng/ml), individual animals 1-3: 245.2 ng/mL and 82.5 ng/mL and 122.7 ng/mL
[4]; Time (min) 15
  Brain contents of (+)-13a-(S)-deoxytylophorinine (ng/ml), Mean ± SD: 150.3 ± 49.8 ng/mL
  Brain contents of (+)-13a-(S)-deoxytylophorinine (ng/ml), individual animals 1-3: 159.3 ng/mL and 96.6 ng/mL and 194.9 ng/mL
[4]; Time (min) 120
  Brain contents of (+)-13a-(S)-deoxytylophorinine (ng/ml), Mean ± SD: 108.8 ± 74.7 ng/mL
  Brain contents of (+)-13a-(S)-deoxytylophorinine (ng/ml), individual animals 1-3: 27.2 ng/mL and 173.7 ng/mL and 125.4 ng/mL
[4]; oral, 3 time points
  Drug contents in brain compared with prototype: higher than their prototype

From patent US20120190703A1, “SALTS OF 13A-(S)DESOXYTYLOPHORININE, PREPARATION METHODS AND PHARMACEUTICAL COMPOSITIONS AND USES THEREOF” (priority 2009, published 2012)
